Where “and” joins values, the source holds several entries; their conditions need not be identical. Equal entries are not always repeated.
Experiments:
Human Serum Albumin = Human Serum Albumin (Homo sapiens, UniProt P02768); conditions: literature; cited from earlier work
[1] = tested on: PC-3 human prostate adenocarcinoma tumor; test: DCE-MRI of contrast agent kinetics in PC-3 tumors of Axitinib- or vehicle-treated mice (Example 3); format: in vivo, NCR athymic nude mice; conditions: contrast agent 100 μmol/kg i.v., one value per animal
Source text: The comparative test has been performed using NCR athymic nude mice implanted with PC-3 cells (a human prostate cancer line) and treated with Axitinib®, a VEGFRs inhibitor, (to modulate the tumor vascular permeability) by a protocol which timing is for instance schematized in FIG. 1. Scope of the test was to compare the image-based analysis of the albumin distribution in a human tumor model as extracted from the analysis of a time-serie of MRI images (with spatial resolution of around 110 μm) acquired with the method of the invention after injection of B22956/1 as contrast agent, and the distribution of FITC-BSA (Fluorescent isothiocyanate Bovine Serum Albumin) albumin inside and outside vessels histologically determined from fluorescent microscopy images on a scale of microns.
In particular, the trans-endothelial permeability (K^Trans) and the fractional plasma volume (fPV) were calculated from dynamic MR data by application of a bi-compartmental pharmacokinetic model, while the Initial Area Under the Curve (IAUCT) was calculated in several time windows, typically comprised between the contrast agent administration and the end of the MRI acquisition. The macromolecular penetration in tumors was, then, probed by fluorescently labelled Bovine Serum Albumin administered via tail vein after the last MRI session. Microscopic images were used to quantify the percentage of area stained by fluorescent albumin in the tumor, as a measure of the blood vessel density, using an automatic thresholding method. The albumin extravasation in the tumor extravascular space was assessed based on the fluorescence found out of the blood vessels from histological samples taken from both of tumor rim and core, for instance as schematized in FIG. 2. In particular, the albumin florescence was averaged over all pixels at a given distance from the nearest vessel and stored as a function of distance from the vessels walls, by use of an optimized procedure, for instance schematized in FIG. 3, providing both a quantification of the availability of the albumin in the extravascular space of the concerned tumor, namely the amount of the extravasated FITC-Albumin, and the decay of its concentration over the distance x from a nearest vessel, or, in other words, its actual distribution and dilution within the extracellular spaces (for instance as schematized in FIG. 4).
Human prostate adenocarcinoma cells (PC-3) were supplied by ATCC (American Type Culture Collection) and grown in Hams F-12 medium supplemented with 10% foetal bovine serum, 2 mM glutamine, 100 IU/mL penicillin and 100 μg/mL streptomycin (all from Lonza, Verviers, Belgium). […] Tumour development was followed by palpation and measured by calliper every 2-3 days until the end of the experiment. […]

tumor tissues = conditions: literature (Maeda et al.); cited from earlier work

Sequence of Human Serum Albumin (P02768 25-609): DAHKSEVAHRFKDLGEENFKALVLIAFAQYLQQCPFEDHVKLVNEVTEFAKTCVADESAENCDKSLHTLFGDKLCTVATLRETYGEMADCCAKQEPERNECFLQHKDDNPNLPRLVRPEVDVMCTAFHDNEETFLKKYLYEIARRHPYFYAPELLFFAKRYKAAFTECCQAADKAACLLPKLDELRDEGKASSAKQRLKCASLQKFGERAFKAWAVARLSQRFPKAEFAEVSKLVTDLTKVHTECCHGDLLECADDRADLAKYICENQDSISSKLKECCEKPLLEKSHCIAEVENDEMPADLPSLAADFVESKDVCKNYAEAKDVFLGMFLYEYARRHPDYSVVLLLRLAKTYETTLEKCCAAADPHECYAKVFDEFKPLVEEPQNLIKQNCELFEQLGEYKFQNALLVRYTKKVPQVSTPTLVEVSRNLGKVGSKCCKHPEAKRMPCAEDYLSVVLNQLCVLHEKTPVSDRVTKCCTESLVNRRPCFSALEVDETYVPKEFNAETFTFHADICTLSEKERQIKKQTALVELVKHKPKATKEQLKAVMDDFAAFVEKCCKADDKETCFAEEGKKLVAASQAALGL

For `O=C([O-])CN(CCN(CC(=O)[O-])C[C@H](COP(=O)([O-])OC1CCC(c2ccccc2)(c2ccccc2)CC1)N(CC(=O)[O-])CC(=O)[O-])CC(=O)[O-].[Gd+3].[H+].[H+].[H+]` [Gadofosveset, reference compound], the “non-covalent binding with Human Serum Albumin” value (Human Serum Albumin) is listed as “about 90%”.

With `CNC[C@H](O)[C@@H](O)[C@H](O)[C@H](O)CO.CNC[C@H](O)[C@@H](O)[C@H](O)[C@H](O)CO.O=C([O-])CN(CCN(CC(=O)[O-])CC(=O)O)CCN(CC(=O)O)C(COCc1ccccc1)C(=O)[O-].[Gd+3]` (stereo not shown) [MultiHance, reference compound] the “kTrans (Transfer Constant)” value ([1]; tumor core) was 3.63 mL\(min × g) × 100 and 1.02 mL\(min × g) × 100 and 2.86 mL\(min × g) × 100 and 3.57 mL\(min × g) × 100 and 2.54 mL\(min × g) × 100 and 1.53 mL\(min × g) × 100 and 0.82 mL\(min × g) × 100 and 3.15 mL\(min × g) × 100 and 4.46 mL\(min × g) × 100 and 1.08 mL\(min × g) × 100 and 1.63 mL\(min × g) × 100 and 3.19 mL\(min × g) × 100 and 2.6 mL\(min × g) × 100 and 4.07 mL\(min × g) × 100 and 1.06 mL\(min × g) × 100 and the “kTrans (Transfer Constant)” value ([1]; tumor rim) was 8.14 mL\(min × g) × 100 and 3.59 mL\(min × g) × 100 and 3.81 mL\(min × g) × 100 and 4.51 mL\(min × g) × 100 and 4.22 mL\(min × g) × 100 and 4.44 mL\(min × g) × 100 and 3.23 mL\(min × g) × 100 and 4.78 mL\(min × g) × 100 and 6.14 mL\(min × g) × 100 and 1.74 mL\(min × g) × 100 and 5.23 mL\(min × g) × 100 (2×) and 5.82 mL\(min × g) × 100 and 3.76 mL\(min × g) × 100 and 2.88 mL\(min × g) × 100.

B1: SMANCS (conjugate, UniProt P0A3R9 35-147, looked up)
Neocarzinostatin: AAPTATVTPSSGLSDGTVVKVAGAGLQAGTAYDVGQCAWVDTGVLACNPADFSSVTADANGSASTSLTVRRSFEGFLFDGTRWGTVDCTTAACQVGLSDAAGNGPEGVAISFN
modifications: styrene-maleic acid copolymer conjugate
For B1, the “spontaneous accumulation within tumor tissues versus normal tissues and organs” value (tumor tissues) is given as “up to 200 times”.
